Data on 25 compounds can be found in patent publication US9206130B2, “Quinoline derivatives as AXL kinase inhibitors” (Max-Planck-Gesellschaft zur Förderung der Wissenschaften …, priority 2008, dated 2015).

For data set [1], the target named is T1, wild type AXL (wtAXL) receptor tyrosine kinase (Homo sapiens, UniProt P30530).
T1 construct: WtAXL cDNA was cloned into vector pLXSN(ESK) and transfected into Phoenix E packaging cells; expressed in transfected cells; host or cells: NIH3T3 N7 mouse fibroblasts, retrovirally infected (clone 22)
T1 sequence (P30530 26-894): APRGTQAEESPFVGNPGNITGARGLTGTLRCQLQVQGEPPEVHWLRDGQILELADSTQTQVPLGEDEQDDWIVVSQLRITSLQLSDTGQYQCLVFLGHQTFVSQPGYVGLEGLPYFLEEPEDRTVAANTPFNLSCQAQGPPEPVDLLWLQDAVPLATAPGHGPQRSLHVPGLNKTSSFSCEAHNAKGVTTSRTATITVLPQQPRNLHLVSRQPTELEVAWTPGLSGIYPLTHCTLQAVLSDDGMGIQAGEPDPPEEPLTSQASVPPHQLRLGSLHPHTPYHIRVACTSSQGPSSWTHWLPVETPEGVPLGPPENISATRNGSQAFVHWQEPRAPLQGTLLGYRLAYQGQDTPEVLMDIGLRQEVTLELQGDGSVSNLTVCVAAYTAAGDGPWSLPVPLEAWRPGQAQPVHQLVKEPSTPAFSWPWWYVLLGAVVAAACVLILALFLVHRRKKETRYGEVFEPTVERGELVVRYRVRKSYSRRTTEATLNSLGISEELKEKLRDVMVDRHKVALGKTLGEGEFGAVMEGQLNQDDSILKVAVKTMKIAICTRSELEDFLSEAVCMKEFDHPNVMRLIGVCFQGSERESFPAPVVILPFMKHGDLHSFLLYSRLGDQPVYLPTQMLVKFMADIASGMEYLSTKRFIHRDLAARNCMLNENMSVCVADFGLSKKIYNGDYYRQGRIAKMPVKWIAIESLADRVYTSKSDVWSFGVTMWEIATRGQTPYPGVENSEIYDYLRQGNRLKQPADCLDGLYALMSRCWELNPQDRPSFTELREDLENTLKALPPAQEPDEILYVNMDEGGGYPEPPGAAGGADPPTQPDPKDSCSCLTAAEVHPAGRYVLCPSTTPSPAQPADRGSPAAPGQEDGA
Kind of data set: NIH-3T3-AXL cellular tyrosine kinase assay (inhibition of AXL phosphorylation). Particulars: AXL phosphorylation in NIH-3T3-AXL (clone 22) cells, serum-depleted, 2 h with compound, immunoprecipitation / anti-phosphotyrosine blot. It is filed as cell-based. An outline of the steps: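 Compound inhibition of AXL autophosphorylation was read by 4G10 immunoblot after anti-AXL immunoprecipitation from lysates. Cells: NIH3T3 lines stably carrying retroviral wild-type human AXL, treated 2 h with compound dilution series.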

By melting point is commonly meant the temperature, or range, at which the solid turns liquid. The term IC50 denotes the point on the concentration scale where inhibition reaches its midpoint. `COc1cc2nccc(Oc3ccc(NS(=O)(=O)c4ccccc4OC(F)(F)F)c(C)c3)c2cc1OC` [Example A112, N-[4-(6,7-Dimethoxy-quinolin-4-yloxy)-2-methyl-phenyl]-2-trifluoromethoxy-benzenesulfonamide] showed a melting point of 230 to 232 °C. Also, in data set [1], the concentration for half-maximal inhibition (IC50) was > 3000 nM.
The compound `COc1cc2nccc(Oc3ccc(NS(=O)(=O)c4ccccc4Cl)c(F)c3)c2cc1OC` [Example A54, 2-Chloro-N-[4-(6,7-dimethoxy-quinolin-4-yloxy)-2-fluoro-phenyl]-benzenesulfonamide] displayed a melting point of 232 to 234 °C. Further, in data set [1], the IC50 was > 1000 nM.
In the same order, the values of `COc1cc2nccc(Oc3ccc(NS(=O)(=O)c4cc(Cl)sc4Cl)c(F)c3)c2cc1OC` [Example A18, 2,5-Dichloro-thiophene-3-sulfonic acid [4-(6,7-dimethoxy-quinolin-4-yloxy)-2-fluoro-phenyl]-amide] are 223 to 225 °C and 2100 nM.
For `Cc1cc(Oc2ccc(NS(=O)(=O)c3cc(Cl)cc(Cl)c3)c(F)c2)c2cccc(C(F)(F)F)c2n1` [Example C01, 3,5-Dichloro-N-[2-fluoro-4-(2-methyl-8-trifluoromethyl-quinolin-4-yloxy)-phenyl]-benzenesulfonamide] the same measures were 181 to 183 °C and > 10000 nM.
For `COc1cc2nccc(Oc3ccc(NS(=O)(=O)c4cc(C)c(C)cc4OC)c(F)c3)c2cc1OC` [Example A64, N-[4-(6,7-Dimethoxy-quinolin-4-yloxy)-2-fluoro-phenyl]-2-methoxy-4,5-dimethyl-benzenesulfonamide] the same measures were 238 to 240 °C and > 1000 nM.
With `COc1cc2nccc(Oc3ccc(NS(=O)(=O)c4cccc5ccccc45)c(C)c3)c2cc1OC` [Example A91, Naphthalene-1-sulfonic acid [4-(6,7-dimethoxy-quinolin-4-yloxy)-2-methyl-phenyl]-amide], the melting point was 233 to 235 °C. Moreover, the IC50 in data set [1] is > 10000 nM.
For `COc1cc2nccc(Oc3ccc(NS(=O)(=O)c4cccc(Cl)c4)c(F)c3)c2cc1OC` [Example A25, 3-Chloro-N-[4-(6,7-dimethoxy-quinolin-4-yloxy)-2-fluoro-phenyl]-benzenesulfonamide] the same measures were 250 to 251 °C and 2380 nM.
In the same order, the values of `COc1cc2nccc(Oc3ccc(NS(=O)(=O)c4ccc(Cl)cc4F)c(C)c3)c2cc1OC` [Example A153, 4-Chloro-N-[4-(6,7-dimethoxy-quinolin-4-yloxy)-2-methyl-phenyl]-2-fluoro-benzenesulfonamide] are 248 to 250 °C and > 10000 nM.
For `COc1cc2c(Oc3ccc(NS(=O)(=O)c4ccccc4C(F)(F)F)c(C)c3)ccnc2cc1OCCN1CCOCC1` [Example D11, N-{4-[6-Methoxy-7-(2-morpholin-4-yl-ethoxy)-quinolin-4-yloxy]-2-methyl-phenyl}-2-trifluoromethyl-benzenesulfonamide] the same measures were 127 to 130 °C and > 3000 nM.
`COc1cc2nccc(Oc3ccc(NS(=O)(=O)c4cnc(C)[nH]4)cc3)c2cc1OC` [Example A80, 2-Methyl-3H-imidazole-4-sulfonic acid [4-(6,7-dimethoxy-quinolin-4-yloxy)-phenyl]-amide] gave a melting point of 268 to 269 °C. In addition, the IC50 in data set [1] is > 10000 nM.
For `COc1cc2nccc(Oc3ccc(NS(=O)(=O)c4cccc(-c5ncccn5)c4)c(F)c3)c2cc1OC` [Example A102, N-[4-(6,7-Dimethoxy-quinolin-4-yloxy)-2-fluoro-phenyl]-3-pyrimidin-2-yl-benzenesulfonamide] the same measures were 137 to 140 °C and > 1000 nM.
For `COc1cc2nccc(Oc3ccc(NS(=O)(=O)c4cccs4)c(F)c3)c2cc1OC` [Example A4] the same measures were 214 to 216 °C and 6000 nM.
In the same order, the values of `COc1cc2nccc(Oc3ccc(NS(=O)(=O)c4cc(F)cc(F)c4)c(F)c3)c2cc1OC` [Example A38, N-[4-(6,7-Dimethoxy-quinolin-4-yloxy)-2-fluoro-phenyl]-3,5-difluoro-benzenesulfonamide] are 243 to 245 °C and > 10000 nM.
The compound `COc1cc2nccc(Oc3ccc(NS(=O)(=O)c4cc(Cl)cc(Cl)c4O)c(F)c3)c2cc1OC` [Example A5, 3,5-Dichloro-N-[4-(6,7-dimethoxy-quinolin-4-yloxy)-2-fluoro-phenyl]-2-hydroxy-benzenesulfonamide] yielded a melting point of 232 to 234 °C. The IC50 in data set [1] worked out at 500 nM.
For `Cc1cc(Oc2ccc(NS(=O)(=O)c3ccc(-c4cnco4)s3)cc2)c2cc(F)ccc2n1` [Example B19, 5-Oxazol-5-yl-thiophene-2-sulfonic acid [4-(6-fluoro-2-methyl-quinolin-4-yloxy)-phenyl]-amide] the same measures were 164 to 166 °C and 8000 nM.
In the same order, the values of `Cc1cc(Oc2ccc(NS(=O)(=O)c3ccc(F)c(Cl)c3)c(F)c2)c2cc(F)ccc2n1` [Example B5, 3-Chloro-4-fluoro-N-[2-fluoro-4-(6-fluoro-2-methyl-quinolin-4-yloxy)-phenyl]-benzenesulfonamide] are 205 to 207 °C and > 10000 nM.
In the same order, the values of `COc1ccc(S(=O)(=O)Nc2ccc(Oc3ccnc4cc(OC)c(OC)cc34)cc2F)cc1F` [Example A88, N-[4-(6,7-Dimethoxy-quinolin-4-yloxy)-2-fluoro-phenyl]-3-fluoro-4-methoxy-benzenesulfonamide] are 230 to 232 °C and > 1000 nM.
`Cc1cc(Oc2ccc(NS(=O)(=O)c3cccc4ccccc34)cc2)c2cc(F)ccc2n1` [Example B20, Naphthalene-1-sulfonic acid [4-(6-fluoro-2-methyl-quinolin-4-yloxy)-phenyl]-amide]: the melting point was 223 to 225 °C. Further, the IC50 in data set [1] was > 10000 nM.
`COc1cc2nccc(Oc3ccc(NS(=O)(=O)c4cc(Cl)cc(Cl)c4O)cc3C)c2cc1OC` [Example A79, 3,5-Dichloro-N-[4-(6,7-dimethoxy-quinolin-4-yloxy)-3-methyl-phenyl]-2-hydroxy-benzenesulfonamide] gave a melting point of 113 to 117 °C. In data set [1], the IC50 stood at 480 nM.
For `COc1cc2c(Oc3ccc(NS(=O)(=O)c4cccc(-c5ccccc5)c4)cc3F)ccnc2cc1OCCCN1CCC(C)CC1` [Example D29, Biphenyl-3-sulfonic acid (3-fluoro-4-{6-methoxy-7-[3-(4-methyl-piperidin-1-yl)-propoxy]-quinolin-4-yloxy}-phenyl)-amide] the same measures were 196 to 198 °C and 178 nM.
In the same order, the values of `COc1cc2nccc(Oc3ccc(NS(=O)(=O)c4ccc(C(F)(F)F)cc4Br)c(F)c3)c2cc1OC` [Example A45, 2-Bromo-N-[4-(6,7-dimethoxy-quinolin-4-yloxy)-2-fluoro-phenyl]-4-trifluoromethyl-benzenesulfonamide] are 236 to 238 °C and > 10000 nM.
For `Cc1cc(Oc2ccc(NS(=O)(=O)c3ccc(C)s3)c(F)c2)c2cc(F)ccc2n1` [Example B7, 5-Methyl-thiophene-2-sulfonic acid [2-fluoro-4-(6-fluoro-2-methyl-quinolin-4-yloxy)-phenyl]-amide] the same measures were 151 to 153 °C and > 10000 nM.
On to `COc1cc2nccc(Oc3ccc(NS(=O)(=O)c4ccc(Cl)cc4F)cc3F)c2cc1OC` [Example A110, 4-Chloro-N-[4-(6,7-dimethoxy-quinolin-4-yloxy)-3-fluoro-phenyl]-2-fluoro-benzenesulfonamide], for which the melting point was in the range of 99 to 101 °C. Further, the IC50 in data set [1] turned out to be 1180 nM.
In the same order, the values of `COc1cc2nccc(Oc3ccc(NS(=O)(=O)c4cccc5cnccc45)cc3)c2cc1OC` [Example A78, Isoquinoline-5-sulfonic acid [4-(6,7-dimethoxy-quinolin-4-yloxy)-phenyl]-amide] are 229 to 231 °C and > 3000 nM.
For the compound `COc1cc2nccc(Oc3ccc(NS(=O)(=O)c4cccc(Oc5ccccc5)c4)cc3F)c2cc1OC` [Example A98, N-[4-(6,7-Dimethoxy-quinolin-4-yloxy)-3-fluoro-phenyl]-3-phenoxy-benzenesulfonamide], the melting point fell in the range of 197 to 199 °C. Besides, in data set [1], the IC50 was 740 nM.
